Results from patent EP2246331A1, “NR2B-selective NMDA-receptor antagonists” (Westfälische Wilhelms-Universität Münster, priority 2009, dated 2010).
Where two headings read alike, the source gives them in different places.

Key:
[1] = target: phencyclidine binding site of the NMDA receptor; conditions: radioligand constant; T. Utech, Dissertation, 2003, Universität Freiburg; cited from earlier work
[2] = target: T1, polyamine binding site of the NR2B subunit of the NMDA receptor (Homo sapiens, UniProt Q05586+Q13224); experiment: Filtration-based receptor binding assay with [3H]-Ifenprodil as radioligand; conditions: 5 nM [3H]-Ifenprodil, membrane homogenates of mouse L(tk-) cells transfected with NR1-1a/NR2B, 180 min at 37 °C, read-out: affinity to the NR2B binding site of the NMDA receptor
T1 construct: expressed in transfected cells; host or cells: mouse L(tk-) cells, dexamethasone-induced; gift from D. Steinhilber, University of Frankfurt
Method: Mouse L(tk-) cells stably transfected with the dexamethasone-inducible eukaryotic expression vectors pMSG NR1-1a, pMSG NR2B in a 1:5 ratio were a generous gift from D. Steinhilber (Department of Pharmacy, University of Frankfurt, Germany). The transformed L(tk-) cells were grown in Modified Earl's Medium (MEM) containing 10% of standardized FCS (Biochrom AG, Berlin, Germany). The expression of the NMDA receptor at the cell surface was induced after the cell density of the adherent growing cells had reached approximately 90% of confluency. For the induction, the original growth medium was replaced by growth medium containing 4 µM dexamethasone and 4 µM ketamine (final concentration). After 24 h the cells were harvested by trypsination and pelleted (10 min, 5,000 x g, Hettich Rotina 35R centrifuge, Tuttlingen, Germany).
For the binding assay, the cell pellet was resuspended in PBS buffer and the number of cells was determined using an improved Neubauer's counting chamber (VWR, Darmstadt, Germany). Subsequently, the cells were lysed by sonication (4 °C, 6 x 10 s cycles with breaks of 10 sec). The resulting cell fragments were centrifuged with a high performance cool centrifuge (20,000 x g, 4 °C, Sorvall RC-5 plus, Thermo Scientific). The supernatant was discarded and the pellet resuspended in a defined volume of phosphate buffer saline (PBS) yielding cell fragments of approximately 500,000 cells/mL. The suspension of membrane homogenates was sonicated again (4 °C, 2 x 10 s cycles with a break of 10 min) and stored at -80 °C.
The cell membrane suspension was added last. All experiments were carried out in triplicates. The incubation was terminated by rapid filtration through filtermats using a cell harvester (MicroBeta FilterMate-96 Harvester, Perkin Elmer). Prior to harvesting, the filtermats were presoaked in 0.5% aqueous polyethylenimine for 2 h at room temperature. After washing each well five times with 300 µL of water, the filtermats were dried at 95 °C. Subsequently, the solid scintillator was placed on the filtermat and melted at 95 °C. After 5 min, the solid scintillator was allowed to solidify at room temperature. The bound radioactivity trapped on the filters was counted in the scintillation analyzer (Microbeta Counter, Perkin Elmer). The overall counting efficiency was 20%.
The protein concentration was determined by the method of Bradford, modified by Stoscheck. The Bradford solution was prepared by dissolving 5 mg of Coomassie Brilliant Blue G 250 in 2.5 mL EtOH (95%, v/v). 10 mL deionized H2O and 5 mL phosphoric acid (85%, m/v) were added to this solution, the mixture was stirred and filled up to a total volume of 50.0 mL with deionized water. The calibration was carried out using bovine serum protein as a standard in concentrations between 0.1 and 10 mg /L. In a 96-well standard multiplate, 10 µL of the calibration solution or 10 µL of the membrane receptor preparation were mixed with 190 µL of the Bradford solution, respectively.
Kd and Bmax were calculated as described in the "Data analysis" section.
Data analysis was performed with Graph Pad Prism® Software, Version 3.0 (Graph Pad Software Inc., San Diego, CA, USA).
Saturation analyses were made by nonlinear regression using the "one-site-saturation" calculation method. The IC50 values of the test compounds used in the competitive binding experiments were determined by nonlinear regression using the "one-site-competition" calculation method. […] The Ki values are given as mean values from three independent experiments ± Standard Error of the Mean (S.E.M).

σ2 receptor = target: T2, σ2 receptor (Rattus norvegicus, UniProt Q5U3Y7); experiment: Receptor binding assay with [3H]-ditolylguanidine on rat liver membranes; conditions: 3 nM [3H]-ditolylguanidine with 2 µM (+)-pentazocine; for Ki: 180 min at room temperature, mean ± SEM, read-out: affinity to the σ2 receptor
T2 construct: tissue Harlan Winkelmann; host or cells: rat liver membranes
T2 sequence (Q5U3Y7 1-176): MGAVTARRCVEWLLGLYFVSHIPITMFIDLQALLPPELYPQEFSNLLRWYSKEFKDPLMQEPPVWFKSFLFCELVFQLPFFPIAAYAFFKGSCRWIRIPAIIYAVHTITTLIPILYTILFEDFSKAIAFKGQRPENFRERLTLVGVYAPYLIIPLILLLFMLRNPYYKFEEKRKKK
Method: (§1) The pig brains were a donation of the local slaughterhouse (Coesfeld, Germany). Homogenizer: Elvehjem Potter (B. Braun Biotech International, Melsungen, Germany). Centrifuge: High-speed cooling centrifuge model Sorvall RC-5C plus (Thermo Fisher Scientific, Langenselbold, Germany). Filter: Printed Filtermat Typ A and B (Perkin Elmer LAS, Rodgau-Jügesheim, Germany), presoaked in 0.5% aqueous polyethylenimine for 2 h at room temperature before use. […] Before filling to the final volume of 1000 mL, the pH of the solution was adjusted to pH=7.5 by dropwise addition of 1M HCl. The filtration was carried out with a MicroBeta FilterMate-96 Harvester (Perkin Elmer). The scintillation analysis was performed using Meltilex (Typ A or B) solid scintillator (Perkin Elmer). The solid scintillator was melted on the filtermat at a temperature of 95 °C for 5 minutes. After solidifying of the scintillator at room temperature, the scintillation was measured using a MicroBeta Trilux scintillation analyzer (Perkin Elmer). The overall counting efficiency was 20 %. All experiments were carried out in triplicates using standard 96-well-multiplates (Diagonal, Muenster, Germany). […] The Ki-values are given as mean value ± SEM from three independent experiments.
Determination of affinity to the σ2 receptor
Two rat livers (Harlan Winkelmann, Borchen, Germany) were cut into smaller pieces and homogenized with the potter (500-800 rpm, 10 up-and-down strokes) in 6 volumes of cold 0.32 M sucrose. The suspension was centrifuged at 1200 x g for 10 min at 4 °C. The supernatant was separated and centrifuged at 31000 x g for 20 min at 4 °C. The pellet was resuspended in 5-6 volumes of buffer (50 mM TRIS, pH 8.0) and incubated at room temperature for 30 minutes. After the incubation, the suspension was centrifuged again at 31000 x g for 20 min at 4 °C. The final pellet was resuspended in 5 to 6 volumes of buffer, the protein concentration was determined according to the method of Bradford using bovine serum albumin as standard, and subsequently the preparation was frozen (-80 °C) in 1.5 mL portions containing about 2 mg protein/mL.
(50 Ci/mmol; ARC). […] The incubation was terminated by rapid filtration through the presoaked filtermats using a cell harvester. After washing each well five times with 300 µL of water, the filtermats were dried at 95 °C. Subsequently, the solid scintillator was placed on the filtermat and melted at 95 °C. The bound radioactivity trapped on the filters was counted in the scintillation analyzer as described in the "General procedures" section.

σ1 receptor = target: T3, σ1 receptor (Cavia porcellus, UniProt Q60492); experiment: Receptor binding assay with [3H]-(+)-pentazocine on guinea pig brain membranes; conditions: 2 nM [3H]-(+)-pentazocine, guinea pig brain membranes; for Ki: 180 min at 37 °C, mean ± SEM, read-out: affinity to the σ1 receptor
T3 construct: tissue Harlan Winkelmann; host or cells: guinea pig brain membranes
Method: as §1
Determination of the affinity to the σ1 receptor
Five guinea pig brains (Harlan Winkelmann, Borchen, Germany) were homogenized with the potter (500-800 rpm, 10 up-and-down strokes) in 6 volumes of cold 0.32 M sucrose. The suspension was centrifuged at 1200 x g for 10 min at 4 °C. […] This procedure was repeated twice. The final pellet was resuspended in 5 to 6 volumes of buffer, the protein concentration was determined according to the method of Bradford using bovine serum albumin as standard, and subsequently the preparation was frozen (-80 °C) in 1.5 mL portions containing about 1.5 mg protein/mL.
The test was performed with the radioligand [^3H]-(+)-pentazocine (42,5 Ci/mmol; Perkin Elmer). […] The incubation was terminated by rapid filtration through the presoaked filtermats using a cell harvester. After washing each well five times with 300 µl of water, the filtermats were dried at 95 °C. The bound radioactivity trapped on the filters was counted in the scintillation analyzer as described in the "General procedures" section. The non-specific binding was determined with 10 µM unlabeled (+)-pentazocine.

[3] = Ki mean of three experiments ± S.E.M.

T1 sequence (Q13224 27-1484, other chains not shown): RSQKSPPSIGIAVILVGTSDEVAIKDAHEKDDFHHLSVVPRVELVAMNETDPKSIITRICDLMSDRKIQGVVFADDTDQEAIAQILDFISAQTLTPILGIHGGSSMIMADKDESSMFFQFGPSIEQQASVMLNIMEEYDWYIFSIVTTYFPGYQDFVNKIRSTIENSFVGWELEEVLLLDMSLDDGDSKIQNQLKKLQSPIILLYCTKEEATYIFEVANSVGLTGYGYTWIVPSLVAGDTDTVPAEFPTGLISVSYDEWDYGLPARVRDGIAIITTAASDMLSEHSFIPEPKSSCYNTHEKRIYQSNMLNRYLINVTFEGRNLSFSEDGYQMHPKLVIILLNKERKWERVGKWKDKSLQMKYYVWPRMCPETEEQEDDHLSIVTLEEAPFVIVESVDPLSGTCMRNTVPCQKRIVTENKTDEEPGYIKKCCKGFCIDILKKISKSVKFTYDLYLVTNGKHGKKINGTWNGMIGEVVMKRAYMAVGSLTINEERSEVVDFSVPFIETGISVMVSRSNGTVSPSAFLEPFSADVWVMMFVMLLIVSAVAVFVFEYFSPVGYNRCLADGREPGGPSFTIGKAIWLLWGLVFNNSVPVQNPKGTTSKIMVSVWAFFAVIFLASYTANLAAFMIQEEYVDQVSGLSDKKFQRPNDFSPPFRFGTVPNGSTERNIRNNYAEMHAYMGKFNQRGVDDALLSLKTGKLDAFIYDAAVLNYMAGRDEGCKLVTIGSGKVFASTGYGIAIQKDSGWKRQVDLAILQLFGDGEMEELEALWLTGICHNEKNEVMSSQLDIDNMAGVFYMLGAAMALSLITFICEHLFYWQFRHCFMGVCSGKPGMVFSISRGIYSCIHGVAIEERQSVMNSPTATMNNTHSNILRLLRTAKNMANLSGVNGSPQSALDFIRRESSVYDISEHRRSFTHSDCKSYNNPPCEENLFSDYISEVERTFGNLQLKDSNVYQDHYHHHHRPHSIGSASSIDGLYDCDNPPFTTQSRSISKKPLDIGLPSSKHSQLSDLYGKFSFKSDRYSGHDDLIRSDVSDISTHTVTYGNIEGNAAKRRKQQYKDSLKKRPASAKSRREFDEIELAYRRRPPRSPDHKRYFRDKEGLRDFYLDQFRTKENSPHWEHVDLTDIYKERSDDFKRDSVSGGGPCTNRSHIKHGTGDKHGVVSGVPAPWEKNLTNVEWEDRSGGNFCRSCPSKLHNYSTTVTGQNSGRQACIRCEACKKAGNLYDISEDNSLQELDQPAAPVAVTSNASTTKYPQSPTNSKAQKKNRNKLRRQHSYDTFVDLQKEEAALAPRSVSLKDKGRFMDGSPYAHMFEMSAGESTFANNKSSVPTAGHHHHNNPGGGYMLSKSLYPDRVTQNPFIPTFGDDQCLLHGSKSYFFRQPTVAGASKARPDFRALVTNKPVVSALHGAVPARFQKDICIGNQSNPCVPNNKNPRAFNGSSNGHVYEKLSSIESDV
T3 sequence (Q60492 whole entry): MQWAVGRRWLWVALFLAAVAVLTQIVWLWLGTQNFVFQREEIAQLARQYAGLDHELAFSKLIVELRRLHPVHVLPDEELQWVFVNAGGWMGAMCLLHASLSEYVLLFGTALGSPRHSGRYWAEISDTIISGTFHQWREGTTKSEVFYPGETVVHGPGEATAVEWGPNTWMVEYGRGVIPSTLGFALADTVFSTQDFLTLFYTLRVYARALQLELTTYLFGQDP

| Molecule | Kd [1] | Ki ([2]; values given in µM) | inhibition of the σ2 receptor only at concentrations above (σ2 receptor) | inhibition of the σ1 receptor only at concentrations above (σ1 receptor; given as above 1 µM or 10 µM) | Ki [2, 3] | Ki (σ2 receptor) | Ki (σ1 receptor) |
| --- | --- | --- | --- | --- | --- | --- | --- |
| (+)-MK-801 | 2.26 nM |  |  |  |  |  |  |
| CC1(C)COC(CCCN2CCc3cc(OCc4ccccc4)ccc3C(O)C2)(c2ccc(F)cc2)OC1 (stereo not shown) [formula (15)] |  | 1.24 µM | above 1 µM | above 1 µM |  |  |  |
| C[C@@H]1[C@H](O)c2ccc(O)cc2CCN1CCCCc1ccccc1 [formula (27)] |  |  |  |  | 0.0123 µM | 142 nM | 85.5 nM |
| COc1ccc2c(c1)CCN(CCCCCc1ccccc1)CC2O (stereo not shown) [formula (5)] |  |  |  |  | 0.325 µM | 305 nM | 65.3 ± 12.3 nM |
| Oc1ccc2c(c1)CCN(CCCOc1ccccc1)CC2O (stereo not shown) [formula (22)] |  |  |  |  | 0.0234 µM | 5.89 ± 2.86 nM | 82.2 nM |
